Data reported in patent publication US4068074A, “Cephalosporin derivatives having at the 3-position of the cephem ring a heterocyclic thiomethyl group with a carboxy or sulfo group and at the 7-position of the cephem ring an α-heterocylic acylaminophenyl-acetamide group” (priority 1974, dated 1978).
≈ marks a conversion by molar mass, not a printed value. Where two headings read alike, the source gives them in different places.

What was measured:
Assay type in all cases: cell-based
[1] = system: Micrococcus flavus ATCC 10240; experiment: MIC against bacteria (Table I), strain (15); details: ATCC10240
Text: (§1) Now, for illustrating the excellent pharmacological effects of the compounds of this invention, the values of MIC (γ/ml.) of the compounds against various bacteria are shown in Table 1, in which the compounds of this invention used are shown by example numbers.
(15) Micrococcus flavus ATCC 10240

[2] = system: Escherichia coli kauffmann 0-1; experiment: MIC against bacteria (Table I), strain (7); details: Escherichia coli
Text: as §1
(7) Escherichia coli kauffmann 0-1

[3] = system: Bacillus subtilis ATCC 6633; experiment: MIC against bacteria (Table I), strain (14); details: ATCC6633; (14) Bacillus subtilis ATCC 6633; read-out: MIC
Text: as §1
(14) Bacillus subtilis ATCC 6633

[4] = system: Bacillus megatherium 10778; experiment: MIC against bacteria (Table I), strain (13); details: (13) Bacillus megatherium 10778; read-out: MIC
Text: as §1

[5] = system: Staphylococcus Shimanishi; experiment: MIC against bacteria (Table I), strain (17); details: (17) Staphylococcus Shimanishi; read-out: MIC
Text: as §1
(17) Staphylococcus Shimanishi

Staphylococcus Onuma = experiment: MIC against bacteria (Table I), strain (18); details: (18) Staphylococcus Onuma; read-out: MIC
Text: as §1
(18) Staphylococcus Onuma

[6] = system: Staphylococcus aureus 209P; experiment: MIC against bacteria (Table I), strain (16); details: Staphylococcus aureus, 209P
Text: as §1
(16) Staphylococcus aureus 209P

Proteus vulgaris 0X 19US = experiment: MIC against bacteria (Table I), strain (2); details: 0X19US
Text: as §1
(2) Proteus vulgaris 0X 19US

Shigella sonnei II 37148 = experiment: MIC against bacteria (Table I), strain (12); details: II37148; (12) Shigella sonnei II 37148; read-out: MIC
Text: as §1

[7] = system: Psuedomonas ovalis IMA 1002; experiment: MIC against bacteria (Table I), strain (6); details: (6) Psuedomonas ovalis IMA 1002; read-out: MIC
Text: as §1
(6) Psuedomonas ovalis IMA 1002

[8] = system: Pseudomonas aeruginosa ATCC 8689; experiment: MIC against bacteria (Table I), strain (4); details: ATCC8689; (4) Pseudomonas aeruginosa ATCC 8689; read-out: MIC
Text: as §1
(4) Pseudomonas aeruginosa ATCC 8689

Salmonella typhi H901 W = experiment: MIC against bacteria (Table I), strain (9); details: Salmonella enterica, TYPHI
Text: as §1
(9) Salmonella typhi H901 W

[9] = system: Shigella flexneri 2a 1675; experiment: MIC against bacteria (Table I), strain (11); details: 2A1675; (11) Shigella flexneri 2a 1675; read-out: MIC
Text: as §1

Proteus vulgaris OXK US = experiment: MIC against bacteria (Table I), strain (1); details: (1) Proteus vulgaris OXK US; read-out: MIC
Text: as §1
(1) Proteus vulgaris OXK US

[10] = system: Proteus mirabilis IXM OM-19; experiment: MIC against bacteria (Table I), strain (3); details: IXMOM19; (3) Proteus mirabilis IXM OM-19; read-out: MIC
Text: as §1
(3) Proteus mirabilis IXM OM-19

Salmonella enteritidis = experiment: MIC against bacteria (Table I), strain (10); details: Salmonella enterica
Text: as §1
(10) Salmonella enteritidis

[11] = system: Pseudomonas aeruginosa 99 (Gentamycin resistant); experiment: MIC against bacteria (Table I), strain (5); details: (5) Pseudomonas aeruginosa 99 (Gentamycin resistant); read-out: MIC
Text: as §1
(5) Pseudomonas aeruginosa 99 (Gentamycin resistant)

[12] = system: Klebsiella pneumoniae ATCC 10031; experiment: MIC against bacteria (Table I), strain (8); details: ATCC10031; (8) Klebsiella pneumoniae ATCC 10031; read-out: MIC
Text: as §1
(8) Klebsiella pneumoniae ATCC 10031

[13] = (15) Micrococcus flavus ATCC 10240, read-out: MIC
[14] = (2) Proteus vulgaris 0X 19US, read-out: MIC
[15] = (10) Salmonella enteritidis, read-out: MIC

Cc1nc(SCC2=C(C(=O)O)N3C(=O)[C@@H](NC(=O)[C@H](NC(=O)c4cnccc4O)c4ccccc4)[C@H]3SC2)sc1C(=O)O [Example 14, 7-[D-α-(4-hydroxynicotinoylamido)-α-phenylacetamido]-3-(4-methyl-5-carboxythiazol-2-yl)thiomethyl-Δ^3-cephem-4-carboxylic acid]
MIC [1, 13]: 6.25 µg/mL (≈ 9.74 µM)
MIC [2]: 3.13 µg/mL (≈ 4.88 µM)
MIC [3]: 0.78 µg/mL (≈ 1.22 µM)
MIC [4]: 0.39 µg/mL (≈ 0.608 µM)
MIC [5]: 12.5 µg/mL (≈ 19.5 µM)
MIC (Staphylococcus Onuma): 12.5 µg/mL (≈ 19.5 µM)
MIC [6]: 1.56 µg/mL (≈ 2.43 µM)
MIC (Proteus vulgaris 0X 19US; [14]): 0.78 µg/mL (≈ 1.22 µM)
MIC (Shigella sonnei II 37148): 3.13 µg/mL (≈ 4.88 µM)
MIC [7]: 25 µg/mL (≈ 39 µM)
MIC [8]: 25 µg/mL (≈ 39 µM)
MIC (Salmonella typhi H901 W): 1.56 µg/mL (≈ 2.43 µM)
MIC [9]: 1.56 µg/mL (≈ 2.43 µM)
MIC (Proteus vulgaris OXK US): 0.19 µg/mL (≈ 0.296 µM)
MIC [10]: 0.19 µg/mL (≈ 0.296 µM)
MIC (Salmonella enteritidis; [15]): 0.78 µg/mL (≈ 1.22 µM)
MIC [11]: 12.5 µg/mL (≈ 19.5 µM)
MIC [12]: 6.25 µg/mL (≈ 9.74 µM)

O=C(O)Cn1nnnc1SCC1=C(C(=O)O)N2C(=O)[C@@H](NC(=O)[C@H](NC(=O)c3cnccc3O)c3ccccc3)[C@H]2SC1 [Example 15, 7-[D-α-(4-hydroxynicotinoylamido)-α-phenylacetamido]-3-(1-carboxymethyltetrazol-5-yl)-thiomethyl-Δ^3-cephem-4-carboxylic acid]
MIC [1, 13]: 25 µg/mL (≈ 39.9 µM)
MIC [2]: 6.25 µg/mL (≈ 9.97 µM)
MIC [3]: 0.39 µg/mL (≈ 0.622 µM)
MIC [4]: 0.39 µg/mL (≈ 0.622 µM)
MIC [5]: 12.5 µg/mL (≈ 19.9 µM)
MIC (Staphylococcus Onuma): 25 µg/mL (≈ 39.9 µM)
MIC [6]: 3.13 µg/mL (≈ 4.99 µM)
MIC (Proteus vulgaris 0X 19US; [14]): 0.39 µg/mL (≈ 0.622 µM)
MIC (Shigella sonnei II 37148): 3.13 µg/mL (≈ 4.99 µM)
MIC [7]: 12.5 µg/mL (≈ 19.9 µM)
MIC [8]: 25 µg/mL (≈ 39.9 µM)
MIC (Salmonella typhi H901 W): 3.13 µg/mL (≈ 4.99 µM)
MIC [9]: 3.13 µg/mL (≈ 4.99 µM)
MIC (Proteus vulgaris OXK US): 0.19 µg/mL (≈ 0.303 µM)
MIC [10]: < 0.09 µg/mL
MIC (Salmonella enteritidis; [15]): 0.78 µg/mL (≈ 1.24 µM)
MIC [11]: 6.25 µg/mL (≈ 9.97 µM)
MIC [12]: 6.25 µg/mL (≈ 9.97 µM)

CC(Sc1nnc(SCC2=C(C(=O)O)N3C(=O)[C@@H](NC(=O)[C@H](NC(=O)c4cnccc4O)c4ccccc4)[C@H]3SC2)s1)C(=O)O (stereo partly drawn) [Example 21, 7-[D-α-(4-hydroxynicotinoylamido)-α-phenylacetamido]-3-[5-(1-carboxyethylthio)-1,3,4-thiadiazol-2-yl]thiomethyl-Δ^3-cephem-4-carboxylic acid]
MIC ([1]; Micrococcus flavus): 3.13 µg/mL (≈ 4.54 µM)
MIC [2]: 3.13 µg/mL (≈ 4.54 µM)
MIC [3]: 0.39 µg/mL (≈ 0.566 µM)
MIC [4]: 0.39 µg/mL (≈ 0.566 µM)
MIC [5]: 6.25 µg/mL (≈ 9.07 µM)
MIC (Staphylococcus Onuma): 6.25 µg/mL (≈ 9.07 µM)
MIC [6]: 1.56 µg/mL (≈ 2.26 µM)
MIC (Proteus vulgaris 0X 19US; [14]): 0.19 µg/mL (≈ 0.276 µM)
MIC (Shigella sonnei II 37148): 3.13 µg/mL (≈ 4.54 µM)
MIC [7]: 12.5 µg/mL (≈ 18.1 µM)
MIC [8]: 12.5 µg/mL (≈ 18.1 µM)
MIC (Salmonella typhi H901 W): 1.56 µg/mL (≈ 2.26 µM)
MIC [9]: 1.56 µg/mL (≈ 2.26 µM)
MIC (Proteus vulgaris OXK US): < 0.09 µg/mL
MIC [10]: 0.39 µg/mL (≈ 0.566 µM)
MIC (Salmonella enteritidis; ENTERITIDIS): 0.39 µg/mL (≈ 0.566 µM)
MIC [11]: 12.5 µg/mL (≈ 18.1 µM)
MIC [12]: 6.25 µg/mL (≈ 9.07 µM)

CC(C)(Sc1nnc(SCC2=C(C(=O)O)N3C(=O)[C@@H](NC(=O)[C@H](NC(=O)c4cnccc4O)c4ccccc4)[C@H]3SC2)s1)C(=O)O [Example 22, 7-[D-α-(4-hydroxynicotinoylamido)-α-phenylacetamido]-3-[5-(1-carboxy-1-methylethylthio)-1,3,4-thiadiazol-2-yl]thiomethyl-Δ^3-cephem-4-carboxylic acid]
MIC [1, 13]: 6.25 µg/mL (≈ 8.89 µM)
MIC [2]: 3.13 µg/mL (≈ 4.45 µM)
MIC [3]: 0.78 µg/mL (≈ 1.11 µM)
MIC [4]: 0.39 µg/mL (≈ 0.555 µM)
MIC [5]: 12.5 µg/mL (≈ 17.8 µM)
MIC (Staphylococcus Onuma): 12.5 µg/mL (≈ 17.8 µM)
MIC [6]: 1.56 µg/mL (≈ 2.22 µM)
MIC (Proteus vulgaris 0X 19US; Proteus vulgaris): 1.56 µg/mL (≈ 2.22 µM)
MIC (Shigella sonnei II 37148): 3.13 µg/mL (≈ 4.45 µM)
MIC [7]: 12.5 µg/mL (≈ 17.8 µM)
MIC [8]: 12.5 µg/mL (≈ 17.8 µM)
MIC (Salmonella typhi H901 W): 3.13 µg/mL (≈ 4.45 µM)
MIC [9]: 1.56 µg/mL (≈ 2.22 µM)
MIC (Proteus vulgaris OXK US): 0.19 µg/mL (≈ 0.27 µM)
MIC [10]: 0.39 µg/mL (≈ 0.555 µM)
MIC (Salmonella enteritidis; [15]): 0.78 µg/mL (≈ 1.11 µM)
MIC [11]: 6.25 µg/mL (≈ 8.89 µM)
MIC [12]: 6.25 µg/mL (≈ 8.89 µM)
